Experimental findings from patent US10421761B2, “Compounds for kinase modulation, and indications therefor” (Plexxikon Inc., priority 2013, dated 2019) are described below.

Like-named read-outs stand apart in the source and are kept apart here. A value given as a limit tells only on which side of the number the result lay.

One assay has as its target T1, BRAF V600E (Homo sapiens, UniProt P15056, V600E).
T1 construct: purchased Upstate Biotechnology
The assay can be described thus: BRAF V600E biochemical kinase activity assay (AlphaScreen, biotin-MEK1 substrate). The note with it: BRAF V600E biochemical inhibitory activity. Here is the method: Compounds to be tested are diluted in dimethyl sulfoxide to a concentration of 0.1 mM. These are serially diluted 15 μL into 30 μL of dimethyl sulfoxide seven times in 96 well plates for a total of 8 dilution points, and for each dilution point 1 μL is added to a well of an assay plate. […] The reaction is started with addition of 10 μL of 200 μM ATP (i.e. final 100 μM ATP). After incubation of the kinase reaction for 45 minutes at room temperature, 5 μL/well of Stop Solution is added (25 mM Hepes pH 7.5, 100 mM EDTA, 0.01% BSA with donor beads (Streptavidin coated beads, Perkin Elmer), acceptor beads (Protein A coated, Perkin Elmer), and anti-phosphor MEK1/2 antibody (CellSignal), each at final concentration 10 μg/mL). The plates are incubated for 3 hours at room temperature and read on Envision reader (Perkin Elmer). Phosphorylation of Mek1 results in binding of the anti-phosphor-MEK1/2antibody and association of the donor and acceptor beads such that signal correlates with kinase activity. The signal versus compound concentration is used to determine the IC50.
The in vitro RAF kinase activities were determined by measuring phosphorylation of a biotinylated substrate peptide as described previously (Tsai, J. et al. Proc Natl Acad Sci USA 105, 3041-3046 (2008)). Compounds of formula (I), e.g., compound A, was also tested against a panel of 287 kinases at concentrations of 1 μM in duplicate. Kinases inhibited by over 50% were followed up by IC50 determination. The 287 kinases represent all major branches of the kinome phylogenetic tree. The inhibition screen of 287 kinases was carried out under contract as complementary panels at Invitrogen (Life Technologies, Wis., USA) SelectScreen™ profiling service, DiscoverX (CA, USA) KINOMEScan™ service, and Reaction Biology Corporation (PA, USA) Kinase HotSpot℠ service.

Another assay concerns B9 (HRAS Q61L) cell line. In words: B9 P-ERK cell activation assay (AlphaScreen). To be noted: Mus musculus, P-ERK cell activation, B9, read-out: Cell activity (EC50 μM) B9_pERK. Type of assay: cell-based, mouse. As for the experimental part: (§1) B9 is a squamous cell carcinoma cell line expressing activated HRAS that was isolated from a DMBA/TPA-induced mouse model of skin carcinogenesis (Stoler, et al. The Journal of Cell Biology, 1993, 122(5), 1103-17). IPC-298 is a human melanoma cell line that expresses activated NRAS (Aubert, et al. International Journal of Cancer, 1993, 54(5), 784-92). To determine whether compounds induce phosphorylated ERK and MEK, cells are plated in a 96-well dish and treated with an 8-point titration of compound for one hour at 37° C. The media is then removed and the cells are incubated with lysis buffer containing protease and phosphatase inhibitors. Phosphorylated ERK and MEK in the resulting lysates is detected using AlphaScreen™ technology. To detect phosphorylated ERK, cell lysates are incubated with streptavidin-coated donor beads, anti-mouse IgG acceptor beads, a biotinylated anti-ERK1/2 rabbit antibody, and a mouse antibody that recognizes ERK1/2 only when it is phosphorylated on Thr202 and Tyr204. The biotinylated ERK1/2 antibody will bind to both the streptavidin-coated donor beads and to ERK1/2 (regardless of its phosphorylation state), and the phospho-ERK1/2 antibody will bind to the acceptor beads and to ERK1/2 that is phosphorylated at Thr202/Tyr204. Excitation of the beads with laser light at 680 nm produces singlet oxygen, which is rapidly quenched unless the beads are in close proximity. When ERK is phosphorylated, both antibodies can bind the same protein, bringing the donor and acceptor beads into close proximity, producing a signal that can be measured at 580 nm. MEK phosphorylation is detected using a similar approach, only with antibodies directed against total MEK1/2 and MEK1/2 that is phosphorylated at Ser217 and Ser221.
(§2) Phospho-ERK AlphaScreen® assay. To determine the effects of compound treatment upon phosphorylation of ERK1/2, cells were plated in a 96-well dish and treated with an 8-point titration of compound for one hour at 37° C. before lysis. To detect pERK, cell lysates were incubated with streptavidin-coated AlphaScreen® donor beads, anti-mouse IgG AlphaScreen® acceptor beads, a biotinylated anti-ERK1/2 rabbit antibody, and a mouse antibody that recognizes ERK1/2 only when it is phosphorylated on Thr202 and Tyr204. The biotinylated ERK1/2 antibody binds to both the streptavidin-coated AlphaScreen® donor beads and to ERK1/2 (regardless of its phosphorylation state), and the phospho-ERK1/2 antibody binds to the acceptor beads and to ERK1/2 that is phosphorylated at Thr202/Tyr204. An increase in ERK1/2 phosphorylation at Thr202/Tyr204 brings the donor and acceptor AlphaScreen® beads into close proximity, generating a signal that can be quantified on an EnVision reader (Perkin Elmer).

The subject of assay [1] is IPC-298 (NRAS Q61L) cell line. The assay can be described thus: IPC-298 P-ERK cell activation assay (AlphaScreen). Type of assay: cell-based, human. To be noted: Homo sapiens, P-ERK cell activation, IPC-298, read-out: Cell activity (EC50 μM) IPC-298_P-ERK. Here is the method:
as §1, §2

Assay [2] relates to A375 (BRAF V600E) cell line. The assay can be described thus: A375 P-ERK inhibition assay (AlphaScreen). Type of assay: cell-based, human. To be noted: Homo sapiens, A-375; A375_P-ERK. As for the experimental part:
as §2

T1 sequence (P15056 whole entry V600E): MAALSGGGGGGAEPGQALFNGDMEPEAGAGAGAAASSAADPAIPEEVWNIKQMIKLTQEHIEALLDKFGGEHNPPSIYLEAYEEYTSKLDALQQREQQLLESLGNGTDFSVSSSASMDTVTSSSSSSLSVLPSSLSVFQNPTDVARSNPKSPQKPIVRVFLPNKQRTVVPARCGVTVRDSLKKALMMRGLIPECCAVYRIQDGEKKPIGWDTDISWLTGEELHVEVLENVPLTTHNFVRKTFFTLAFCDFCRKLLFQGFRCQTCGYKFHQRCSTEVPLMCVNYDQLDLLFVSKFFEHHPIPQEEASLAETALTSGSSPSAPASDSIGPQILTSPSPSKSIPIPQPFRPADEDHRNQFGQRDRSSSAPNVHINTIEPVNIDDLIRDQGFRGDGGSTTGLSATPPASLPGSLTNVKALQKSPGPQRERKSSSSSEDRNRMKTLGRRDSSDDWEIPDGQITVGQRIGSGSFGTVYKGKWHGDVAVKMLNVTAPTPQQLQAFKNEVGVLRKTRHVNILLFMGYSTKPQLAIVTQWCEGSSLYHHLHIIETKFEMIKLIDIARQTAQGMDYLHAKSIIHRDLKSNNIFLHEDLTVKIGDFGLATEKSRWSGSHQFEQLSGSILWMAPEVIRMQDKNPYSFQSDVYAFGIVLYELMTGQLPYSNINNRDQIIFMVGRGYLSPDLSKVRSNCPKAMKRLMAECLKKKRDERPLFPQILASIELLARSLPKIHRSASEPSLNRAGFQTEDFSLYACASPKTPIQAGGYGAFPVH

As for `CC(C)(C)c1nc(-c2cccc(NS(=O)(=O)N3CCCC3)c2F)c(-c2ccnc3[nH]ccc23)s1` [P-2120, N-[3-[2-tert-butyl-5-(1H-pyrrolo[2,3-b]pyridin-4-yl)thiazol-4-yl]-2-fluoro-phenyl]pyrrolidine-1-sulfonamide], the figures for the half-maximal inhibitory concentration (IC50) (on BRAF V600E; in assay [2]) were 0.0001 to 1 µM and 1 to 10 µM, respectively. Moreover, the 50% effective concentration (EC50) (in the assay with B9 (HRAS Q61L) cell line (numeric bounds); in assay [1] (numeric bounds)) was above 10 µM each time.
For the compound `CC(=O)Nc1ccc(NC(=O)c2c(F)ccc(NS(=O)(=O)N(C)C)c2F)cn1` [P-2034, N-(6-acetamido-3-pyridyl)-3-(dimethylsulfamoylamino)-2,6-difluoro-benzamide], the concentration for half-maximal inhibition (IC50) against BRAF V600E fell in the range of 0.0001 to 1 µM; in assay [2] it was 1 to 10 µM. Moreover, the EC50 (in the assay with B9 (HRAS Q61L) cell line (numeric bounds); in assay [1] (numeric bounds)) was above 10 µM in each case.
Consider `COC(=O)N[C@@H](C)CNc1nccc(-c2nn(C(C)C)cc2-c2cc(Cl)cc(NS(=O)(=O)C3CC3)c2F)n1` [P-2170, methyl N-[(1S)-2-[[4-[4-[5-chloro-3-(cyclopropylsulfonylamino)-2-fluoro-phenyl]-1-isopropyl-pyrazol-3-yl]pyrimidin-2-yl]amino]-1-methyl-ethyl]carbamate], for which the IC50 (against BRAF V600E; in assay [2]) was 0.0001 to 1 µM in each case. In addition, the EC50 (with B9 (HRAS Q61L) cell line (class symbols); in assay [1] (class symbols)) was 0.0001 to 1 µM each time.
Consider `O=C(c1cccc(NS(=O)(=O)N2CCCC2)c1F)c1c[nH]c2ncnc(C3CC3)c12` [P-2078, N-[3-(4-cyclopropyl-7H-pyrrolo[2,3-d]pyrimidine-5-carbonyl)-2-fluoro-phenyl]pyrrolidine-1-sulfonamide], for which the 50% inhibitory concentration (IC50) (at BRAF V600E; in assay [2]) was 0.0001 to 1 µM throughout. For the same compound, the concentration giving a half-maximal response (EC50) (in the assay with B9 (HRAS Q61L) cell line (numeric bounds); in assay [1] (numeric bounds)) was above 10 µM throughout.
Take `O=C(c1cccc(NS(=O)(=O)N2CCCC2)c1F)c1c[nH]c2ncnc(NC3(C(=O)O)CC3)c12` [P-2097, 1-[[5-[2-fluoro-3-(pyrrolidin-1-ylsulfonylamino)benzoyl]-7H-pyrrolo[2,3-d]pyrimidin-4-yl]amino]cyclopropanecarboxylic acid]: the results for the IC50 (against BRAF V600E; in assay [2]) were 1 to 10 µM and above 10 µM, respectively. Moreover, the EC50 (in the assay with B9 (HRAS Q61L) cell line (numeric bounds); in assay [1] (numeric bounds)) was above 10 µM throughout.
As to `O=C(c1c(F)ccc(NS(=O)(=O)N2CCOCC2)c1F)c1c[nH]c2ncncc12` [P-2031, N-[2,4-difluoro-3-(7H-pyrrolo[2,3-d]pyrimidine-5-carbonyl)phenyl]morpholine-4-sulfonamide], the 50% inhibitory concentration (IC50) against BRAF V600E was 1 to 10 µM; in assay [2] it was above 10 µM. The EC50 (in the assay with B9 (HRAS Q61L) cell line (numeric bounds); in assay [1] (numeric bounds)) was above 10 µM in each case.
As for `Cc1cc(NS(=O)(=O)N2CC[C@@H](F)C2)c(F)c(C(=O)c2c[nH]c3ncc(-c4cnc(C5CC5)nc4)cc23)c1` [P-2182, (3R)-N-[3-[5-(2-cyclopropylpyrimidin-5-yl)-1H-pyrrolo[2,3-b]pyridine-3-carbonyl]-2-fluoro-5-methyl-phenyl]-3-fluoro-pyrrolidine-1-sulfonamide], on BRAF V600E, the IC50 fell in the range of 0.0001 to 1 µM. Moreover, the concentration giving a half-maximal response (EC50) (in the assay on B9 (HRAS Q61L) cell line (numeric bounds); in assay [1] (numeric bounds)) was above 10 µM each time.
Compound `Cc1cc(NS(=O)(=O)N2CCCC2)c(F)c(C(=O)c2c[nH]c3ncc(-c4cnc(C5CC5)nc4)cc23)c1` [P-2183, N-[3-[5-(2-cyclopropylpyrimidin-5-yl)-1H-pyrrolo[2,3-b]pyridine-3-carbonyl]-2-fluoro-5-methyl-phenyl]pyrrolidine-1-sulfonamide] showed an IC50 against BRAF V600E of 0.0001 to 1 µM. Besides, the EC50 (with B9 (HRAS Q61L) cell line (numeric bounds); in assay [1] (numeric bounds)) was above 10 µM each time.
Turning to `COC(=O)N[C@@H](C)CNc1nccc(-c2sc(C(C)(C)C)nc2-c2cccc(NS(=O)(=O)N3CC[C@@H](F)C3)c2F)n1` [P-2138, methyl N-[(1S)-2-[[4-[2-tert-butyl-4-[2-fluoro-3-[[(3R)-3-fluoropyrrolidin-1-yl]sulfonylamino]phenyl]thiazol-5-yl]pyrimidin-2-yl]amino]-1-methyl-ethyl]carbamate], the concentration for half-maximal inhibition (IC50) (on BRAF V600E; in assay [2]) was 0.0001 to 1 µM in each case. For the same compound, the EC50 with B9 (HRAS Q61L) cell line (numeric bounds) was above 10 µM.
